Reference: patent US20030135033A1, “Compounds and methods for the identification and/ or validation of a target” (priority 2002, published 2003)

Tested on: PTEN mRNA
Assay: Immunoblot of PTEN and phosphorylated Akt after GeneBloc transfection of 3Y1 cells
Type: cell-based, rat
Protocol: A total of three different antisense oligonucleotides, also referred to as geneblocs herein, namely PTEN 48, PTEN 57 and PTEN 53 were transfected into rat-embryo fibroblast cell line together with a negative control comprising a randomised sequence (also referred to herein as GBC). More particularly, 3Y1 cells on 10 cm plates were transfected with 15 or 30 nM of the three different PTEN specific Geneblocs 48, 57 and 53 and with GBC. After 48 h cells were harvested and the cell extracts were analyzed by immunoblotting for the relative protein amounts of p110, Akt, phosphorylated Akt (P*-Akt) and PTEN as indicated on the right. […] The concentration dependency of the antisense oligonucleotides can be particularly well seen from the use of PTEN 57 and PTEN 53 and was confirmed by further experiments. The most powerful antisense oligonucleotide among said three antisense oligonucleotides was PTEN 53. P110 was used as a marker to reflect the loading of each of the lanes.
In the corresponding experiment PTEN 53 was used as the antisense oligonucleotide and a total of four mismatches were introduced to the particular sequence with the total length of PTEN 57 being 23 nucleotides. Again, GBC was used as a negative control. The sequence of the mismatch oligonucleotide is BucucauuTsTssCssTspl sTssTssGssTssGsscucacgaB (SEQ ID No. 33) with B representing an inverted abasic nucleotide. In addition an antisense oligonucleotide was prepared specific for the mRNA of luciferase inhibiting luciferase expression in cells engineered to express the recombinant firefly gene. The respective lane on the Western blot is designated as “luc”. The same experiment was carried out using either 30 nM or 60 nM antisense oligonucleotide. As mentioned in connection with FIG. 3, P110 serves as an internal loading standard.
Transfections were carried out in 96 well or 10-cm plates (at 30% to 50% confluency) by using various cationic lipids such as Oligofectamine, Lipofectamine (Life Technologies), NC388 (Ribozyme Pharmaceuticals, Inc., Boulder, CO), or FuGene 6 (Roche) according to the manufacturer's instructions. […] molecules, including third generation antisense molecules, were transfected by adding pre-formed 5× concentrated complex of GeneBloc and lipid in serum-free medium to cells in complete medium. The total transfection volume was 100 μl for cells plated in 96 wells and 10 ml for cells in 10 cm plates. The final lipid concentration was 0.8 to 1.2 μg/ml depending on cell density; the GeneBloc concentration is indicated in each experiment.
Cells were washed twice with cold phosphate-buffered saline and lysed at 4° C. in lysis buffer containing 20 mM Tris (pH 7.5), 137 mM NaCl, 15% (vol/vol) glycerol, 1% (vol/vol) Nonidet P-40 (NP-40), 2 mM phenylmethylsulfonyl fluoride, […], 20 mM leupeptin, 2 mM benzamidine, 1 mM sodium vanadate, 25 mM […]-glycerol phosphate, 50 mM NaF and 10 mM NaPPi. Lysates were cleared by centrifugation at 14,000× g for 5 minutes and aliquots of the lysates were analyzed for protein expression by Western-blotting: Samples were separated by SDS-PAGE and transferred to nitrocellulose-filters (Schleicher & Schuell). Filters were blocked in TBST buffer (10 mM Tris-HCl (pH 7.5), 150 mM NaCl, 0.05% (vol/vol) Tween 20, 0.5% (wt/vol) sodium azide) containing 5% (wt/vol) dried milk. The respective antibodies were added in TBST at appropriate dilutions. Bound antibody was detected using anti-mouse- or anti-rabbit-conjugated horse radish peroxidase (Transduction Laboratories, BD) in TBST, washed, and developed using the SuperSignal West Dura (Pierce) or ECL (Amersham) chemoluminescence substrates. […]
To further ensure that Akt phosphorylation is not caused by an artefact or by stress imposed through the transfection conditions we tested various negative control third generation antisense molecules (negative control GeneBlocs). […]

[1] = 30 nM or 60 nM, PTEN 53 versus negative control GeneBlocs
[2] = 3Y1 cells, 15 or 30 nM GeneBloc, 48 h
[3] = 3Y1 cells, 15 or 30 nM GeneBloc, 48 h, listed as PTEN GeneBloc 53

ucuccuuTTGTTTCTGcuaacga (UCUCCUUTTGTTTCTGCUAACGA; chemistry not fully specified) [PTEN 53, third generation antisense oligonucleotide (GeneBloc) against PTEN]
PTEN protein / PTEN mRNA degradation (immunoblot) [1]: inhibited PTEN expression | phosphorylated Akt (P*-Akt) (immunoblot) [1]: resulted in the phosphorylation of Akt | phosphorylated Akt (P*-Akt) (immunoblot) (30 nM or 60 nM, PTEN 53 versus negative control GeneBlocs, listed as PTEN GeneBloc 53): caused an increase in Akt phosphorylation | PTEN protein (immunoblot) [2]: no longer present | phosphorylated Akt (P*-Akt) (immunoblot) [2]: phosphorylated Akt could be detected | PTEN protein (immunoblot) [3]: most efficient knock down in PTEN expression | phosphorylated Akt (P*-Akt) (immunoblot) [3]: strongest increase in Akt phosphorylation | ranking among the three PTEN antisense oligonucleotides (3Y1 cells, 15 or 30 nM, 48 h): most powerful
